Assay results reported in ChEMBL document CHEMBL3132769, “Fragment growing to retain or alter the selectivity of anchored kinase hinge-binding fragments” (Medchemcomm, 2014).

Legend:
[1] = target: Fibroblast growth factor receptor 1 (Homo sapiens) (UniProt P11362); assay: Inhibition of human FGFR1 catalytic domain expressed in baculovirus assessed as substrate phosphorylation using fluorescence-labelled peptides as substrate at 9 uM after 90 mins by microfluidic peptide phosphorylation assay
[2] = target: Tyrosine-protein kinase ABL1 (Homo sapiens) (UniProt P00519); assay: Inhibition of human full-length ABL expressed in baculovirus assessed as substrate phosphorylation using fluorescence-labelled peptides as substrate at 95 uM after 90 mins by microfluidic peptide phosphorylation assay
[3] = target: Proto-oncogene tyrosine-protein kinase Src (Homo sapiens) (UniProt P12931); assay: Inhibition of human full length SRC expressed in baculovirus assessed as substrate phosphorylation using fluorescence-labelled peptides as substrate at 0.06 uM after 90 mins by microfluidic peptide phosphorylation assay
[4] = target: T1, MAP kinase-activated protein kinase 5 (Homo sapiens) (UniProt Q8IW41); assay: Inhibition of human full length PRAK expressed in baculovirus assessed as substrate phosphorylation using fluorescence-labelled peptides as substrate at 0.06 uM after 90 mins by microfluidic peptide phosphorylation assay
T1 sequence (whole entry): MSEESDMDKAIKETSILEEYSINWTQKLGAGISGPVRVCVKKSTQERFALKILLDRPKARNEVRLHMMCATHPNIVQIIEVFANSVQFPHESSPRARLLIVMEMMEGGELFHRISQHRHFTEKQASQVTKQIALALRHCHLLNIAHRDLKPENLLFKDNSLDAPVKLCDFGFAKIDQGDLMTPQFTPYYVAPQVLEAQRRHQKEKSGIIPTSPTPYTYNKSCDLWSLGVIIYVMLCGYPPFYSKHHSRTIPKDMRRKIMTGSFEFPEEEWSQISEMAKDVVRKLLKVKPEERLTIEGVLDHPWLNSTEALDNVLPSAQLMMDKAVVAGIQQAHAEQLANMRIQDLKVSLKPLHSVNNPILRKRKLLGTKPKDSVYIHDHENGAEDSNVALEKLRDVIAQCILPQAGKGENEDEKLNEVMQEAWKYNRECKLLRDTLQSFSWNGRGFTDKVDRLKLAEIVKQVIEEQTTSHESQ

[5] = target: T2, cGMP-dependent protein kinase 1 (Homo sapiens) (UniProt Q13976); assay: Inhibition of human full length PKG-1a expressed in baculovirus assessed as substrate phosphorylation using fluorescence-labelled peptides as substrate at 420 uM after 90 mins by microfluidic peptide phosphorylation assay
T2 sequence (whole entry): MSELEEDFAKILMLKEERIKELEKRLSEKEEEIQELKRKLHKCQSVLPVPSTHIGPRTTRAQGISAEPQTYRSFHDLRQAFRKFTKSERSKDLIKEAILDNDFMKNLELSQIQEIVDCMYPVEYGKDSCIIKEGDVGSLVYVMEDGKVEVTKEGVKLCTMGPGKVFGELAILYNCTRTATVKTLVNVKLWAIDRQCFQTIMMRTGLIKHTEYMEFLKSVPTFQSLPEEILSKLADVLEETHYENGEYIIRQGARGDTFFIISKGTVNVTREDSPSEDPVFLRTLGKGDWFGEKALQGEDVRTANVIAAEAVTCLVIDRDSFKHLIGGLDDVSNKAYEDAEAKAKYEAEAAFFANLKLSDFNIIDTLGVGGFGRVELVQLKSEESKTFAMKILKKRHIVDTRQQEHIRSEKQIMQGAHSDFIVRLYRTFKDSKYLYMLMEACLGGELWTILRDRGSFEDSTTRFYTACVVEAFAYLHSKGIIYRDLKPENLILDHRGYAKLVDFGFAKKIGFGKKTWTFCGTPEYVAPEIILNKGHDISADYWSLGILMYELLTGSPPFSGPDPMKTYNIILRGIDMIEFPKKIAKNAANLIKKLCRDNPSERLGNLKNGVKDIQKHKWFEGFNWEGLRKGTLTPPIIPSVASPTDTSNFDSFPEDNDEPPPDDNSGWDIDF

[6] = target: Protein kinase C theta type (Homo sapiens) (UniProt Q04759); assay: Inhibition of human truncated PKC theta expressed in baculovirus assessed as substrate phosphorylation using fluorescence-labelled peptides as substrate at 420 uM after 90 mins by microfluidic peptide phosphorylation assay
[7] = target: T3, Aurora kinase A (Homo sapiens) (UniProt O14965); assay: Inhibition of human full length AurA expressed in baculovirus assessed as substrate phosphorylation using fluorescence-labelled peptides as substrate at 70 uM after 90 mins by microfluidic peptide phosphorylation assay
T3 sequence (whole entry): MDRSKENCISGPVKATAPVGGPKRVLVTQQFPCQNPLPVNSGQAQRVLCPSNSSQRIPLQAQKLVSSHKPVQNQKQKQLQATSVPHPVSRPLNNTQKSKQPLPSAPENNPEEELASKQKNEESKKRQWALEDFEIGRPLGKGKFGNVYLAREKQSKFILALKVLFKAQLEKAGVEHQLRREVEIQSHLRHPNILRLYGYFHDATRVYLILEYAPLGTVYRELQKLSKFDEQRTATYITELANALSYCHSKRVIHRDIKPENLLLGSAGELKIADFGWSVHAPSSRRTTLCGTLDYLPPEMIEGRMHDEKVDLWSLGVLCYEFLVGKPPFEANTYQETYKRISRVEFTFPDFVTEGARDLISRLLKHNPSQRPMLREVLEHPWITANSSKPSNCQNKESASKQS

[8] = target: T4, Aurora kinase C (Homo sapiens) (UniProt Q9UQB9); assay: Inhibition of human full length AurC expressed in baculovirus assessed as substrate phosphorylation using fluorescence-labelled peptides as substrate at 1000 uM after 90 mins by microfluidic peptide phosphorylation assay
T4 sequence (whole entry): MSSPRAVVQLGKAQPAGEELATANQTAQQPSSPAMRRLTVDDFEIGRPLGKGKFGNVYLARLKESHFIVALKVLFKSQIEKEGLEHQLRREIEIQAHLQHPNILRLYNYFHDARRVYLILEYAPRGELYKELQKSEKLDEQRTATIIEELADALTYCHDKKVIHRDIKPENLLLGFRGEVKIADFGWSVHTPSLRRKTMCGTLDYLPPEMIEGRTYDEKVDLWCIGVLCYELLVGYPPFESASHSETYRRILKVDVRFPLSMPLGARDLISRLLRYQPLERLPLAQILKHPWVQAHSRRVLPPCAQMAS

[9] = target: T5, Testis-specific serine/threonine-protein kinase 2 (Homo sapiens) (UniProt Q96PF2); assay: Inhibition of human full length TSSK2 expressed in baculovirus assessed as substrate phosphorylation using fluorescence-labelled peptides as substrate at 1000 uM after 90 mins by microfluidic peptide phosphorylation assay
T5 sequence (whole entry): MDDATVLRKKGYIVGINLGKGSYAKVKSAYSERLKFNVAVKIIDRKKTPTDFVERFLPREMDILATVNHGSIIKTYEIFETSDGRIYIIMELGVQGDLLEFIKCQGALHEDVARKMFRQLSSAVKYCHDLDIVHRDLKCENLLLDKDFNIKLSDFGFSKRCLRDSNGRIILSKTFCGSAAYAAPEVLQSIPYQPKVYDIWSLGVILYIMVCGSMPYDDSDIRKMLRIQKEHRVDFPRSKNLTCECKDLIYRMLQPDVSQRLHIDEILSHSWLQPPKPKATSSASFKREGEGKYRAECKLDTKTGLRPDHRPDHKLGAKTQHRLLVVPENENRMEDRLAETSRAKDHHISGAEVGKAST

Chain of Protein kinase C theta type (Homo sapiens) (Q04759 whole entry, looked up, the tested form may be a part): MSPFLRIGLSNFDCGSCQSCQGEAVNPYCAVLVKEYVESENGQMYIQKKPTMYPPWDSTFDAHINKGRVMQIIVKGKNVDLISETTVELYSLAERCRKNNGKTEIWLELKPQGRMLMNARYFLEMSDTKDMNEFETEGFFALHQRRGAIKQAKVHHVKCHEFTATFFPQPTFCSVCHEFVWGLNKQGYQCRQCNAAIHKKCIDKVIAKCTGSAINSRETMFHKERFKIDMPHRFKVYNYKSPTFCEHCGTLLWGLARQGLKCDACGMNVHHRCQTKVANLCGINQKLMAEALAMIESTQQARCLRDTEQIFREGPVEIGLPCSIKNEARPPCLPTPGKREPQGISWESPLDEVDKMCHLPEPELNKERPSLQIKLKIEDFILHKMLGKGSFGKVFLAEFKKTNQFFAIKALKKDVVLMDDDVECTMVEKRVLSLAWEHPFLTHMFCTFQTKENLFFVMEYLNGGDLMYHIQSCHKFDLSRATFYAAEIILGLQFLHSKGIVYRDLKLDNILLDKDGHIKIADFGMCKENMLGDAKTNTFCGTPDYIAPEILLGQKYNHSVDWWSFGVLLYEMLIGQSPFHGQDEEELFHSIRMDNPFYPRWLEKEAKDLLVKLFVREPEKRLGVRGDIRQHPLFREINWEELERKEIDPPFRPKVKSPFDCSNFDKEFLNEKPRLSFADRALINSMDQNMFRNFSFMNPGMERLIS
Chain of Proto-oncogene tyrosine-protein kinase Src (Homo sapiens) (P12931 2-536 limits assumed): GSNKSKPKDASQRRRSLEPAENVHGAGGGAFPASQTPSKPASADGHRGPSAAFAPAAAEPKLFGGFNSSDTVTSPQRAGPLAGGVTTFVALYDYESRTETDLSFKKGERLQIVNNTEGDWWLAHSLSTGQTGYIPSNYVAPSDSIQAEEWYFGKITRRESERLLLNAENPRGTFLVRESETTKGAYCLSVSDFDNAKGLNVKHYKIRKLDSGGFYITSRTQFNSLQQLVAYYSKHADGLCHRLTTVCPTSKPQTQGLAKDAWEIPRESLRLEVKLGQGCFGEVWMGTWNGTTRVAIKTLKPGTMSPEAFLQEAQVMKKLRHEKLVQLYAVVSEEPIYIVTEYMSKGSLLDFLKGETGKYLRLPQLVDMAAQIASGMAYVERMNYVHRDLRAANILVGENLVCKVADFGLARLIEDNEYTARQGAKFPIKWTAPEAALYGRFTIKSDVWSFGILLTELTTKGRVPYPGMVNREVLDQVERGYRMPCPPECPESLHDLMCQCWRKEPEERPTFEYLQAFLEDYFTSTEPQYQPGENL
Chain of Fibroblast growth factor receptor 1 (Homo sapiens) (P11362 22-822 limits assumed): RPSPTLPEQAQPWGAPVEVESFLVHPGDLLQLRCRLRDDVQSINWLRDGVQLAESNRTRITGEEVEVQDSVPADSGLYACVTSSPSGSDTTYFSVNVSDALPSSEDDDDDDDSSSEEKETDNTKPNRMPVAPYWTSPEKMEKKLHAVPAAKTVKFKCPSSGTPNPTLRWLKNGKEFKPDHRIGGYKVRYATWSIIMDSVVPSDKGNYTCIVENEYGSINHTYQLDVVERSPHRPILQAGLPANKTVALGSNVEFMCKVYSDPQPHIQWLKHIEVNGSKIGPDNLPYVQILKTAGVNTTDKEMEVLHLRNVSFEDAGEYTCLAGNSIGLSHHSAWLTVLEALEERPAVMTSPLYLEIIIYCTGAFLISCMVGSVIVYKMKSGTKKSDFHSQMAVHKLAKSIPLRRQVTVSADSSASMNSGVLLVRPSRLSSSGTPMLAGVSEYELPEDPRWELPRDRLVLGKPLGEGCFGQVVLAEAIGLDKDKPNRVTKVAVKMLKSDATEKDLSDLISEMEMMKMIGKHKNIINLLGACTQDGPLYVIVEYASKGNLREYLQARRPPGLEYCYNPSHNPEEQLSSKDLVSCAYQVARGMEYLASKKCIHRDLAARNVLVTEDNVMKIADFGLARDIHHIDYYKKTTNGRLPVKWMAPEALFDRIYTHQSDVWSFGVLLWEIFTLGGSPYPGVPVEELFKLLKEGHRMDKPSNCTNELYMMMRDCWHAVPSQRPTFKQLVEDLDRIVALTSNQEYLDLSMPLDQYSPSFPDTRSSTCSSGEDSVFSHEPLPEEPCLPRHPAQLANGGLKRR
Chain of Tyrosine-protein kinase ABL1 (Homo sapiens) (P00519 whole entry): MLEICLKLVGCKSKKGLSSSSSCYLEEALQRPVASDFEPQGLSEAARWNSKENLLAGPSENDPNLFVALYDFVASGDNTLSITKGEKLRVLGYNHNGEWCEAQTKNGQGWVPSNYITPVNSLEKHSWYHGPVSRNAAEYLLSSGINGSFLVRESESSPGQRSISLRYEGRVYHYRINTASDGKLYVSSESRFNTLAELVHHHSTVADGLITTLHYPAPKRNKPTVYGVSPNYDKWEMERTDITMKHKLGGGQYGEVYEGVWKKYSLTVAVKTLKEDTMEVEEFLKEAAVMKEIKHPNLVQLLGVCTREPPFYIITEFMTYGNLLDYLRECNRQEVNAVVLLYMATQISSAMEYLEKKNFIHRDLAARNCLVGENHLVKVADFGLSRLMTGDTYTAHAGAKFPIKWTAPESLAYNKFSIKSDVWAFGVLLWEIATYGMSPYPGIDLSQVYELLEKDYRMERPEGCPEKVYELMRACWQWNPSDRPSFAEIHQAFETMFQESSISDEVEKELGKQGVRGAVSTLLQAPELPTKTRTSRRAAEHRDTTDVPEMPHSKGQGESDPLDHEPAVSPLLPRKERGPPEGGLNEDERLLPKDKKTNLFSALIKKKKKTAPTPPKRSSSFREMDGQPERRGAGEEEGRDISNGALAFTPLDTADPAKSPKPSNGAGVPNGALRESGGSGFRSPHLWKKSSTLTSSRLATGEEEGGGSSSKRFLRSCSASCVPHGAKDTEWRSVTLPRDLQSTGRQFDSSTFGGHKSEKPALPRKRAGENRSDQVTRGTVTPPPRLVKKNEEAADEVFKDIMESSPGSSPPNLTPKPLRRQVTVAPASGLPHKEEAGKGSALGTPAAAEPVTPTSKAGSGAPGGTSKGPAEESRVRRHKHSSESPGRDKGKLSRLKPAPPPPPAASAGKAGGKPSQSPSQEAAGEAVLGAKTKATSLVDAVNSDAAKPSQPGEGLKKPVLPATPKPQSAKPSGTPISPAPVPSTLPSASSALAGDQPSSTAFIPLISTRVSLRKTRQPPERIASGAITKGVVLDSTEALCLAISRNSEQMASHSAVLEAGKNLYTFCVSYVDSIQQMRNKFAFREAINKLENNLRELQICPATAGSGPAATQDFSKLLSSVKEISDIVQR

Compound: NCC1CN(c2ncnc3[nH]c4cnccc4c23)CCO1 (centres undefined)
- inhibition [1]: 55.5%

Compound: NCCc1ccc(-c2ncnc3[nH]cnc23)cc1
- inhibition [2]: 78%

Compound: NC1(Cc2ccc(Cl)cc2)CCN(c2ncnc3[nH]ccc23)CC1
- inhibition [3]: 0%
- inhibition [4]: 0%

Compound: c1nc(N2CCOCC2)c2nc[nH]c2n1
- inhibition [5]: 98%
- inhibition [6]: 67.5%

Compound: CNCc1ccc(-c2ncnc3[nH]cnc23)cc1
- inhibition [7]: 68%

Compound: c1cnc2[nH]ccc2c1
- inhibition [8]: 96%
- inhibition [9]: 37%
